Read-outs that look alike come from different tables or passages of the source. Some results are limits rather than exact numbers.

Results on 1 compound are retold here after patent publication US20250100977A1, “MERCAPTOPYRIMIDINE COMPOUNDS THAT INHIBIT NONHOMOLOGOUS END JOINING AND METHODS THEREOF” (INDIAN INSTITUTE OF SCIENCE, priority 2021, published 2025).

In one series the test system is Raji. Description: Cytotoxicity in Raji. The following applies: Table 2; read-out: IC50 in cancer cell lines, Raji. Type of series: cell-based. As for the experimental part:
(§1) Ligase IV specificity of the compounds of the present invention inside the cells were also determined using Ligase IV knock out (KO) cell line N114 compared to the wild type Nalm6 (Table 2, FIGS. 5C, D, E and F). […] Table 1 showing IC50 of SCR7 derivatives in cancer cell lines Nalm6 and HeLa. IC50 was calculated using GraphPad Prism software from the percentage of viable cells following treatment with the compounds at 48 h. Table 2 showing IC50 of SCR116 and SCR132 in a panel of 16 cancer cell lines.

The test system of another series is Reh. As to the kind of experiment: Cytotoxicity in Reh. The series is classed as cell-based. Conditions: Table 2; 48 h; read-out: IC50 in cancer cell lines, Reh. As for the experimental part:
(§2) The compounds of the present invention were screened initially in leukemic and cervical cancer cell lines (Table 1). […] In cervical cancer cell line HeLa, IC50 was 5 and 2 μM, respectively for SCR116 and SCR132 (FIG. 5A-B).
as §1

A further series has as its system HeLa. As to the kind of experiment: Cytotoxicity (viable cells) in HeLa. Type of series: cell-based. Conditions: Table 2; read-out: IC50 in cancer cell lines, HeLa. How it is done: as §2, §1
The test system of a further series is EAC. Description: Cytotoxicity in EAC. Type of series: cell-based, mice. The following applies: Table 2; read-out: IC50 in cancer cell lines, EAC. How it is done: as §1
Series [1] concerns cancer cell lines, particularly leukemia. Conditions: background statement; cited from earlier work.
Another series concerns SUDHL8. Description: Cytotoxicity in SUDHL8. The series is classed as cell-based. Conditions: Table 2; read-out: IC50 in cancer cell lines, SUDHL8. How it is done:
as §1

The nature of series [2]: Bioavailability in mice serum by HPLC. Conditions: intraperitoneal, 20 mg/kg body weight.
Method: The bioavailability of the compounds of the present disclosure were analysed in mice serum at different time points (0.5, 1, 2, 4, 6, 8, 10, 12, 24 and 48 h) by HPLC at 232 nm wavelength (FIGS. 10N-P).
Another series deals with T1, DNA Ligase IV/XRCC4 (Homo sapiens, UniProt P49917).
T1 construct: made in house; host or cells: bacteria
The following applies: 200 μM; background statement; cited from earlier work.

For another series, the system named is Molt4. Description: Cytotoxicity in Molt4. The series is classed as cell-based, human. Conditions: Table 2; read-out: IC50 in cancer cell lines, Molt4. As for the experimental part:
as §1

The next series has as its system Nalm6. Description: Cytotoxicity (viable cells) in Nalm6. The series is classed as cell-based. Conditions: Table 2; read-out: IC50 in cancer cell lines, Nalm6. As for the experimental part: as §2, §1
A further series concerns Supt1. As to the kind of experiment: Cytotoxicity in Supt1. The series is classed as cell-based. The following applies: Table 2; read-out: IC50 in cancer cell lines, Supt1. How it is done: as §1
For series [3], the system named is Ligase IV knock out (KO) cell line N114. Conditions: Vartak et al. 2018, cited from earlier work.
The subject of a further series is CEM. Description: Cytotoxicity in CEM. The following applies: Table 2; read-out: IC50 in cancer cell lines, CEM. Type of series: cell-based. As for the experimental part: as §1
The test system of the next series is HCT116. As to the kind of experiment: Cytotoxicity in HCT116. Type of series: cell-based. The following applies: Table 2; read-out: IC50 in cancer cell lines, HCT116. As for the experimental part: as §1
Series [4] has as its system Ligase IV knock out (KO) cell line N114. Description: Cytotoxicity in Ligase IV knock out cell line N114. The following applies: Table 2, 48 h, read-out: IC50 in cancer cell lines, N114. The series is classed as cell-based. As for the experimental part:
as §1

The next series deals with L1210. As to the kind of experiment: Cytotoxicity in L1210. Type of series: cell-based. The following applies: Table 2; read-out: IC50 in cancer cell lines, L1210. How it is done: as §1
Another series has as its system MCF7. As to the kind of experiment: Cytotoxicity in MCF7. Type of series: cell-based. The following applies: Table 2; read-out: IC50 in cancer cell lines, MCF7. As for the experimental part:
as §1

A further series concerns LN229. Description: Cytotoxicity in LN229. Conditions: Table 2; read-out: IC50 in cancer cell lines, LN229. Type of series: cell-based. How it is done: as §1
The test system of a further series is U118. As to the kind of experiment: Cytotoxicity in U118. Type of series: cell-based. The following applies: Table 2; read-out: IC50 in cancer cell lines, U118. How it is done:
as §1

The subject of a further series is Molt3. As to the kind of experiment: Cytotoxicity in Molt3. Type of series: cell-based. The following applies: Table 2; read-out: IC50 in cancer cell lines, Molt3. How it is done: as §1

T1 sequence (P49917 whole entry): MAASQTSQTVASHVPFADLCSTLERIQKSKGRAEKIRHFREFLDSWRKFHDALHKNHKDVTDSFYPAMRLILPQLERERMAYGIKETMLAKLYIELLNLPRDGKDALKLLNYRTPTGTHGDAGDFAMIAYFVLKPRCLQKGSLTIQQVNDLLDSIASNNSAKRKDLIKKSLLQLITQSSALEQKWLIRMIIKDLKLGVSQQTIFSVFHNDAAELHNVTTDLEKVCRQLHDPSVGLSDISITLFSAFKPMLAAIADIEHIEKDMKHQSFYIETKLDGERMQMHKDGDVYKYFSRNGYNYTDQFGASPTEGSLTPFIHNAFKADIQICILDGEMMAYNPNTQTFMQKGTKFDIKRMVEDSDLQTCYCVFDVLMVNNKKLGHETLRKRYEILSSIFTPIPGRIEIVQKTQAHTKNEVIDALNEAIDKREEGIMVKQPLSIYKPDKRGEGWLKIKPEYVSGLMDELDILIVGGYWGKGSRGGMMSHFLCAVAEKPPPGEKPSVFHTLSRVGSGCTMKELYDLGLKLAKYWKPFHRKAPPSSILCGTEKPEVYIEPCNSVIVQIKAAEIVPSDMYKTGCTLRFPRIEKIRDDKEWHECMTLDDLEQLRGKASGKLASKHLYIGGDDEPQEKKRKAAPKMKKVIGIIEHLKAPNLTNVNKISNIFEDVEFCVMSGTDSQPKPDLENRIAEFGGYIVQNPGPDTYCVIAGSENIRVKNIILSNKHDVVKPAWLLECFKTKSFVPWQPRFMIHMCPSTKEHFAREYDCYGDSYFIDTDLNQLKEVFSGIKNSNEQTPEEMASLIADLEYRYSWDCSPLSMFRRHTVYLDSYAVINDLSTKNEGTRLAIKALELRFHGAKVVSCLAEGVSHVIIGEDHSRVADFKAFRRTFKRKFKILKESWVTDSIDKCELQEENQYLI
T1 sequence (Q13426 whole entry partner): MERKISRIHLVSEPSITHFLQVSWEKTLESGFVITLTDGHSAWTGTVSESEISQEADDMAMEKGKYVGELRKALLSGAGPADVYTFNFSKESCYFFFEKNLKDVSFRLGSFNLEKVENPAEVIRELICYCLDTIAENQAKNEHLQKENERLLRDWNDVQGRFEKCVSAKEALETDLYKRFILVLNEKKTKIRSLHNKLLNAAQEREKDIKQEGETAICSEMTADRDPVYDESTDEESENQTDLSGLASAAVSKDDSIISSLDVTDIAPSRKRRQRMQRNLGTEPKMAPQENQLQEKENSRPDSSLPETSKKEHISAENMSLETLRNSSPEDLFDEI

As for `O=c1[nH]c(=S)[nH]c(N=Cc2ccccc2)c1N=Cc1ccccc1` [SCR7, reference compound], the IC50 is over 250 µM in the series with Raji; over 250 µM in the series with Reh; 44 µM in the series with HeLa; 132 µM in the series on EAC; over 250 µM in [1]; 100 µM in the series with SUDHL8. For the same compound, the IC50 in the series on Molt4 was 182 µM; with Nalm6 it was 50 µM; with Supt1 it was 109 µM; in series [3], over 250 µM; with CEM, over 200 µM; in the series on HCT116, 302 µM. Besides, the IC50 was over 250 µM in [4]; 370 µM in the series with L1210; 40 µM in the series with MCF7; 59.9 µM in the series on LN229; 151 µM in the series with U118; 79.1 µM with Molt3. The same compound showed a t1/2 in series [2] of 1 h. Further, the “Inhibition of DNA Ligase IV” value on DNA Ligase IV/XRCC4 is 50%. Moreover, the “Fold increased IC50 in N114” value in [3] (vs Nalm6) was 5 fold.
